From ChEMBL document CHEMBL4190275, “Quinoliniumolate and 2H-1,2,3-Triazole Derivatives from the Stems of Paramignya trimera and Their α-Glucosidase Inhibitory Activities: In Vitro and in Silico Studies” (J Nat Prod, 2017) come the findings set out here.

The nature of this test: Inhibition of Saccharomyces cerevisiae alpha-glucosidase using p-nitrophenyl-alpha-D-glucopyranoside as substrate measured after 30 mins.

One may read the IC50 as the concentration that gives 50% inhibition. High values mean weaker potency in that assay, low ones greater potency in that assay. Molecule `C/C=C/c1cc(=O)c2ccccc2n1C` registered a 50% inhibitory concentration (IC50) greater than 250 µM.

Molecule `CCCC[C@@H](CC)COC(=O)c1cn[nH]n1` gave an IC50 of 138 µM.
